Source: patent publication US9815852B2, “Macrocyclic compounds and methods of treatment” (University of Florida Research Foundation, Inc., priority 2014, dated 2017)
Where two headings read alike, the source gives them in different places.

Legend:
Type in all cases: biochemical
HDAC1 = HDAC1 (Homo sapiens, UniProt Q13547); experiment: HDAC enzyme inhibitory assay (fluorescence), HDAC1
Description: (§1) Enzyme inhibitory assays were carried out essentially as follows. In brief, compounds were incubated with the appropriate HDAC enzyme, the appropriate HDAC substrate, bovine serum albumin, and HDAC buffer. Duplicate reactions were carried out at 37° C. for 30 min. The reactions were quenched at the end of the incubation period with the addition of HDAC developer. Reactions were further incubated for 15 min at room temperature prior to fluorescence measurement (ex 360 nm/em 460 nm). The % inhibitory activity was calculated according to the equation (F−Fb)/(Ft−Fb), where F—fluorescent intensity of compound treated wells, Fb—fluorescent intensity of blank wells, Ft—fluorescent intensity of solvent control wells. IC50 values were calculated using GraphPad Prism.

HDAC8 = molecular target: T1, HDAC8 (Homo sapiens, UniProt Q9BY41); experiment: HDAC enzyme inhibitory assay (fluorescence), HDAC8
T1 sequence (Q9BY41 1-377): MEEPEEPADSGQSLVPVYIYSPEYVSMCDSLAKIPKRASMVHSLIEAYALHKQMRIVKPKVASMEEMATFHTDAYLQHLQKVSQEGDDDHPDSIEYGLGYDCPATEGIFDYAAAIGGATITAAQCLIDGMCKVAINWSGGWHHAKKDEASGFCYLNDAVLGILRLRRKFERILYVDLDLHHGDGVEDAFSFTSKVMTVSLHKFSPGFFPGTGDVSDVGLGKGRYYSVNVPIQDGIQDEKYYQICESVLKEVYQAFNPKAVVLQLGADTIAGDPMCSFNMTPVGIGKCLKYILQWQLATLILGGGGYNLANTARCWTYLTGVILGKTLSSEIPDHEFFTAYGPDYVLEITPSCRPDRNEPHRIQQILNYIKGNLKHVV
Description: as §1

HDAC2 = HDAC2 (Homo sapiens, UniProt Q92769); experiment: HDAC enzyme inhibitory assay (fluorescence), HDAC2; conditions: for IC50 (HDAC2)/IC50 (HDAC1): selectivity ratio, table
Description: as §1

HDAC3 = HDAC3 (Homo sapiens, UniProt O15379); experiment: HDAC enzyme inhibitory assay (fluorescence), HDAC3; conditions: for IC50 (HDAC3)/IC50 (HDAC1): selectivity ratio, table
Description: as §1

class I HDACs = experiment: HDAC enzyme inhibitory assay, class I HDACs overall; conditions: class I HDACs tested (HDAC1, 2, 3, 8)
Description: as §1, with “Reactions were further incubated for 15 min at room temperature prior to fluorescence measurement (ex 360 nm/em 460 nm).” left out

[1] = read-out: IC50 HDAC8, 'No Inhibition up to 1 μM', no inhibition up to highest concentration 1 μM
[2] = no inhibition up to highest concentration 1 μM

HDAC3, sequence (O15379 whole entry, species assumed): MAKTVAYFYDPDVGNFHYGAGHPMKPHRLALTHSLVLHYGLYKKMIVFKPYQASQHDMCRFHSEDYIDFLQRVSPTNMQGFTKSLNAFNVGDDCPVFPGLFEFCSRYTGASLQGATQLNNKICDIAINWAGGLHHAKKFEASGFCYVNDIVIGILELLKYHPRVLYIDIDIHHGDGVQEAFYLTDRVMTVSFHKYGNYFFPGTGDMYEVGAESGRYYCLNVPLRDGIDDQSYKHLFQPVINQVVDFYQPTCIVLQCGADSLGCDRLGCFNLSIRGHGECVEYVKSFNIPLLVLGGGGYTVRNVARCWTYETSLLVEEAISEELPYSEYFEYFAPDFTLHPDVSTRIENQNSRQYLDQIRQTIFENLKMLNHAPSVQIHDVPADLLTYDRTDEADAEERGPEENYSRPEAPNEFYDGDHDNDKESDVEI
HDAC3, sequence (Q9Y618 395-489 partner limits assumed, species assumed): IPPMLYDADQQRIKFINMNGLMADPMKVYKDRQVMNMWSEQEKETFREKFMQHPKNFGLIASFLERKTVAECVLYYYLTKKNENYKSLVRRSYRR
HDAC1, sequence (Q13547 whole entry, species assumed): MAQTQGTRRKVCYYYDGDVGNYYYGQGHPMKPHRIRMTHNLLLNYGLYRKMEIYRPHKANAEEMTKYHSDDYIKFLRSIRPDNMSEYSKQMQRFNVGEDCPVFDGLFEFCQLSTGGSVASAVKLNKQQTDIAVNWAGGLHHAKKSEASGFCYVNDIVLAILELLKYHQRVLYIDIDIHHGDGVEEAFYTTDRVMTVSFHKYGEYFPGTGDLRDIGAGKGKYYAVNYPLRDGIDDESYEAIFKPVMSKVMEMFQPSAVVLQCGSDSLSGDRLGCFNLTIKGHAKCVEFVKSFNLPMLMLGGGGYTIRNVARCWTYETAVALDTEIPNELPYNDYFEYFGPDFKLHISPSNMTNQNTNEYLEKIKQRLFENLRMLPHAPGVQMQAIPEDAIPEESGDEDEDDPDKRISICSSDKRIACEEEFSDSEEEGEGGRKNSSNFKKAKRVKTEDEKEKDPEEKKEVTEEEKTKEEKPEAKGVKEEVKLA
HDAC2, sequence (Q92769 whole entry, species assumed): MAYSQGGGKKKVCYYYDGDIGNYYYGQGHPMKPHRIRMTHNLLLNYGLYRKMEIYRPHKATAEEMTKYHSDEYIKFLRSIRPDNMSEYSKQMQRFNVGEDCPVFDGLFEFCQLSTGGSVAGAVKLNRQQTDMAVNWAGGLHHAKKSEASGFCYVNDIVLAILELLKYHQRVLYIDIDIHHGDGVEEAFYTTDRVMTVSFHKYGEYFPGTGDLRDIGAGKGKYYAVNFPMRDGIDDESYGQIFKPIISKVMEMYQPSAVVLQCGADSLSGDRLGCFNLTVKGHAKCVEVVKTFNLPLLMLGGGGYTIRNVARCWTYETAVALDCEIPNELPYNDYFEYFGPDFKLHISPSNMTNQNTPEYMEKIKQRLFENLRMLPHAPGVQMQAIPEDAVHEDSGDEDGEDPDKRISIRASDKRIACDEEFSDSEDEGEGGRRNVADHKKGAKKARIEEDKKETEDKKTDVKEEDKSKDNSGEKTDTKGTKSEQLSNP

| Compound | IC50 (HDAC1) | IC50 (HDAC8; [1]) | IC50 (HDAC8; [2]) | IC50 (HDAC2) | IC50 (HDAC2)/IC50 (HDAC1) (HDAC2) | IC50 (HDAC3) | IC50 (HDAC3)/IC50 (HDAC1) (HDAC3) | other results |
| --- | --- | --- | --- | --- | --- | --- | --- | --- |
| CC12CSC(=N1)c1csc(n1)CNC(=O)CC(C=CCCS)OC(=O)C(Cc1ccccc1)NC2=O (centres unmarked) [Compound 3] | 0.29 nM | > 1000 nM | – | – | – | – | – | – |
| C[C@@]12CSC(=N1)c1csc(n1)CNC(=O)C[C@@H](/C=C/CCS)OC(=O)[C@H](Cc1ccc(O)cc1)NC2=O [Compound 4] | – | – | > 1000 nM | – | – | – | – | – |
| CC12CSC(=N1)c1csc(n1)CNC(=O)CC(C=CCCS)OC(=O)C(Cc1c[nH]cn1)NC2=O (centres unmarked) [Compound 5] | 0.2 nM | > 1000 nM | – | 1.4 nM | 7.0 | 1.1 nM | 5.5 | selectivity towards HDAC1 over HDAC2 (HDAC2): 7 fold; selectivity towards HDAC1 over HDAC3 (HDAC3): 5.5 fold |
| CC12CSC(=N1)c1csc(n1)CNC(=O)CC(C=CCCS)OC(=O)C(CC(=O)O)NC2=O (centres unmarked) [Compound 6] | 39 nM | > 1000 nM | – | – | – | – | – | HDAC inhibition, potency in words (class I HDACs): significant reduction in activity |
| C[C@@]12CSC(=N1)c1csc(n1)CNC(=O)C[C@@H](/C=C/CCS)OC(=O)[C@H](CCN)NC2=O [Compound 7] | – | – | > 1000 nM | – | – | – | – | – |
| C[C@@]12CSC(=N1)c1csc(n1)CNC(=O)C[C@@H](/C=C/CCS)OC(=O)[C@H](CCCN)NC2=O [Compound 8] | – | – | > 1000 nM | – | – | – | – | – |
| CC(C)(C)OC(=O)NCCC1NC(=O)C2(C)CSC(=N2)c2csc(n2)CNC(=O)CC(C=CCCS)OC1=O (centres unmarked) [Compound 9] | 2.3 nM | > 1000 nM | – | 3.1 nM | 1.4 | 4.2 nM | 1.8 | – |
| CC(C)(C)OC(=O)NCCCC1NC(=O)C2(C)CSC(=N2)c2csc(n2)CNC(=O)CC(C=CCCS)OC1=O (centres unmarked) [Compound 10] | 0.96 nM | – | – | 1.4 nM | 1.5 | 1.8 nM | 1.9 | HDAC inhibition, potency in words (class I HDACs): more potent than 9; IC50 (HDAC8; read-out: IC50 (nM) HDAC8): 790 nM |
